Laboratory results reported in article PMC7946403, “Targeted LC-MS/MS platform for the comprehensive determination of peptides in the kallikrein-kinin system” (Analytical and Bioanalytical Chemistry, 2021).
Where a name gives a salt, the structure may show the parent alone.

system: not given; assay: not given; assay type: in vitro ADME, human; conditions: not given
Description: In this study, human blank plasma was generated by sampling blood into trisodium citrate S-Monovettes® spiked with hexadimethrine bromide and nafamostat mesylate to prevent the artificial generation of bradykinin. After centrifugation at 2000×g for 10 min at room temperature, the plasma was left at room temperature for 4 h to enable degradation of short-lived kinins. The blank plasma generated was stored at −20 °C until use.
Before preparation of quality control (QC) or calibration curve samples, a protease inhibitor was added to blank plasma samples, following a protocol derived from Nussberger et al.. Solid-phase extraction (SPE) was performed using 96-well Oasis weak cation exchange (WCX) μ-elution plates (Waters, Milford, MA, USA). The wells were conditioned with 200 μL methanol, followed by 200 μL water. […]
Finally, stability was examined using three replicates of four QC levels (high [750.0 pg/mL], mid [125.0 pg/mL] and low [31.1 pg/mL and 7.8 pg/mL]). […] Freeze-thaw stability was determined after one, two and four cycles of complete thawing and refreezing of samples at −80 °C. Furthermore, long-term stability of the plasma samples was analysed after 1, 2 and 4 weeks. For all stability investigations, the maximum deviation of the calculated concentration to the nominal concentration compared to a freshly prepared calibration curve was ≤15% (RE).

Molecule	Freeze-thaw stability (in words)
bradykinin 1-5 (RPPGF; Bradykinin; UniProt P01042 381-385, looked up, fragment)	trended towards a decrease
bradykinin 1-7 (RPPGFSP; Bradykinin; UniProt P01042 381-387, looked up, fragment)	trended towards a decrease

system: artificial generation of bradykinin; assay: Evaluation of inhibitors preventing the artificial formation of bradykinin for generation of blank plasma; parameters: species or system human; conditions: plasma from prespiked S-Monovettes stored at 21 °C, analysed after 30 min, 1.5 h and 4.5 h, n = 3
Description: Due to the endogenous presence of kinins in human plasma, it was aimed to develop a surrogate matrix mimicking human biological samples at best. Therefore, distinct serine protease inhibitors were evaluated for their ability to prevent the artificial generation of bradykinin after blood sampling. […] Therefore, plasma was drawn into prespiked S-Monovettes® and aliquots of the plasma stored at 21 °C were analysed after 30 min, 1.5 h and 4.5 h. The following inhibitors were investigated and compared to plasma without inhibitor (each n = 3): 4-(2-aminoethyl)benzolsulfonylfluoride (AEBSF), hexadimethrine bromide, aprotinin, nafamostat mesylate and leupeptin. Additionally, the final blank generation protocol was evaluated for six human sources, whose generated blanks were analysed in triplicate to ensure the depletion of endogenous peptides across multiple sources.

Molecule	Prevention of artificial generation of bradykinin (in words)
NCCc1ccc(S(=O)(=O)F)cc1 [AEBSF, 4-(2-aminoethyl)benzolsulfonylfluoride]	did not sufficiently prevent the artificial generation of bradykinin
CC(=O)N[C@@H](CC(C)C)C(=O)N[C@@H](CC(C)C)C(=O)N[C@H](C=O)CCCNC(=N)N [leupeptin]	only decreased the formation of bradykinin at the 0.5 h and 1.5 h timepoints
N=C(N)c1ccc2cc(OC(=O)c3ccc(N=C(N)N)cc3)ccc2c1 [nafamostat, nafamostat mesylate]	only decreased the formation of bradykinin at the 0.5 h and 1.5 h timepoints
aprotinin	did not sufficiently prevent the artificial generation of bradykinin
hexadimethrine bromide	lowest levels of bradykinin were detected
